By IC50 is commonly meant the midpoint of a concentration-inhibition curve. As usually defined, the Ki is a measure of affinity in units of concentration, obtained from inhibition or displacement. What is called pKi is the Ki on a negative log10 scale, so that one unit is a factor of ten. A low value points to a high Ki.

We go through two compounds from ChEMBL document CHEMBL1201862, “PubChem BioAssay data set” (2004).

The target of one assay is T1, Exodeoxyribonuclease V (Escherichia coli (strain K12), UniProt P04993+P07648+P08394).
T1 sequence (P04993 whole entry): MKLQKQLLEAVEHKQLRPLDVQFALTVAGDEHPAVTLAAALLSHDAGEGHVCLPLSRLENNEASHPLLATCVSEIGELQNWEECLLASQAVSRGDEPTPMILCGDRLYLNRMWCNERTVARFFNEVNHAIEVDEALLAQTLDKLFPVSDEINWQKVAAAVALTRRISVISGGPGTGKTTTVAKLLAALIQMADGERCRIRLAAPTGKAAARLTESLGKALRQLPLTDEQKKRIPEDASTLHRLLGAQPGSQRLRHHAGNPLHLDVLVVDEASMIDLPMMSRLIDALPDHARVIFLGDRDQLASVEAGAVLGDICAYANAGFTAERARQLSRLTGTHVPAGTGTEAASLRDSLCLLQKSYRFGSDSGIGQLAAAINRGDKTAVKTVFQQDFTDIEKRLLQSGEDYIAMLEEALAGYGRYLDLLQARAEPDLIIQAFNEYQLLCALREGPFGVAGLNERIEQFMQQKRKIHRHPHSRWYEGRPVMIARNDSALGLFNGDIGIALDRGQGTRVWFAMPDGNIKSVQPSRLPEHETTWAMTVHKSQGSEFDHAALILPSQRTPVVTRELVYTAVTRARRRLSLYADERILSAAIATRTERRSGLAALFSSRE
T1 sequence (P07648 whole entry): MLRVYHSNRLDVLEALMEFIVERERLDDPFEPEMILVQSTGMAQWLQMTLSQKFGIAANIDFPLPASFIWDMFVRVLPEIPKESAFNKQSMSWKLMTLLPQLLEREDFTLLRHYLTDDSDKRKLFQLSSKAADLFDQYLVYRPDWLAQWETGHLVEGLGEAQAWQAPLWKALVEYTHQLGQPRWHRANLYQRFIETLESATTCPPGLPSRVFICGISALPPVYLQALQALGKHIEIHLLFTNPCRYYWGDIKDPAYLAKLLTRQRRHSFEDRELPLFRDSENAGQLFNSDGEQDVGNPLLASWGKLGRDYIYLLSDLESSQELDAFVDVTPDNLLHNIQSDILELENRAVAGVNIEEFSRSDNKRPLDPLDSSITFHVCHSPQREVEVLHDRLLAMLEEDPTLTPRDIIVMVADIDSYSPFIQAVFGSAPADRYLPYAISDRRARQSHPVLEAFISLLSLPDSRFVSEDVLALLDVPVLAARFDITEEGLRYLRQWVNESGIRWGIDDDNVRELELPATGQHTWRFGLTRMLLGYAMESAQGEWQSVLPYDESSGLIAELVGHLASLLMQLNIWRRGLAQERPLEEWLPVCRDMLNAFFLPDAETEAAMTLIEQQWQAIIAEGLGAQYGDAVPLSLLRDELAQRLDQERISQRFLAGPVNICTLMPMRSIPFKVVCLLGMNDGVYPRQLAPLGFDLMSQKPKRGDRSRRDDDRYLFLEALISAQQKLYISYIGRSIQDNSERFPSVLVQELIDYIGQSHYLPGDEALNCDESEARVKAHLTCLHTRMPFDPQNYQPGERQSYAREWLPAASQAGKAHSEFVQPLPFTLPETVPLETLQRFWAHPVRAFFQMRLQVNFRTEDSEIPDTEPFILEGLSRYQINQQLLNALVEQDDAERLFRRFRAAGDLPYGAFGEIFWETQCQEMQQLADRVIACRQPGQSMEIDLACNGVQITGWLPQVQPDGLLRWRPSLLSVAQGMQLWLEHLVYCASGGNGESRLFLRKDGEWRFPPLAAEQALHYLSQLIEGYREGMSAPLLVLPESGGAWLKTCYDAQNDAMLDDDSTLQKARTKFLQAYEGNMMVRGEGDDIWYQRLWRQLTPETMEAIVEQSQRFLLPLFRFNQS
T1 sequence (P08394 whole entry): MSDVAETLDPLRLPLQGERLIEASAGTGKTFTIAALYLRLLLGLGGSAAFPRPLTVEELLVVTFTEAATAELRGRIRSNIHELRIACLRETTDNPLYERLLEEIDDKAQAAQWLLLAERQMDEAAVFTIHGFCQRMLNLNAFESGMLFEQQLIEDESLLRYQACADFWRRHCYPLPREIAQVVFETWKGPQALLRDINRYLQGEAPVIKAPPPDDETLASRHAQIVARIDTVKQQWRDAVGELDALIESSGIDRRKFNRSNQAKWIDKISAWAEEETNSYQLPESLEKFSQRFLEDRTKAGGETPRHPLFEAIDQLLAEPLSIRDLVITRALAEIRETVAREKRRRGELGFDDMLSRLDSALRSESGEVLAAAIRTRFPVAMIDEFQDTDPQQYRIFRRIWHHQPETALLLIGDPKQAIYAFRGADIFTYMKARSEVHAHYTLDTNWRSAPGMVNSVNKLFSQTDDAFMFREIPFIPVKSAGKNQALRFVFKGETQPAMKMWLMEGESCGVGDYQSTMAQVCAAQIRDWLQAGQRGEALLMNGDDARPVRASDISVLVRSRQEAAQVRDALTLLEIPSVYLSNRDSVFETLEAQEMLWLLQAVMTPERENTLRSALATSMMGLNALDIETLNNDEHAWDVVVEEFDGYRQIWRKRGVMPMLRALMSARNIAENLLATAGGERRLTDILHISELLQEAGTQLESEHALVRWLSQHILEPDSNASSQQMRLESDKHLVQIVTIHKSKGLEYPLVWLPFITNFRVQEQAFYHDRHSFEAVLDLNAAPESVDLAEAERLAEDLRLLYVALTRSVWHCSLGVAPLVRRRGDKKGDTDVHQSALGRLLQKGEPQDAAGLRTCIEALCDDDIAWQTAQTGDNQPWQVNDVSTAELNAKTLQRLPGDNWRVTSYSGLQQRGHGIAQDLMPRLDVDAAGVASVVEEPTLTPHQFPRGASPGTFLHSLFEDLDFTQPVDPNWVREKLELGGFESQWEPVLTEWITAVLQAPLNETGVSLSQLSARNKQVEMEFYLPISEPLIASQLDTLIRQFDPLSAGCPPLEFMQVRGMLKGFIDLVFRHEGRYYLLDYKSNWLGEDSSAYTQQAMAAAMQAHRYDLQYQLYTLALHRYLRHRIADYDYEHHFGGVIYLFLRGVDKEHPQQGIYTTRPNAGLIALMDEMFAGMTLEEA
The assay is described as follows: RecBCD inhibition via phage-restricted bacterial growth – absorbance, V66 E. coli, mutant T4 phage, counter-screen for AddAB inhibitor project, dose response (AID 492957). It is filed as functional, cell-based, Escherichia coli str. K-12 substr. MG1655.

Assay [1] addresses Maternal embryonic leucine zipper kinase (Homo sapiens, UniProt Q14680). In kind it is functional.

Calls of active or inactive are those of the source. How the calls were made is not given here.

Sequence of Maternal embryonic leucine zipper kinase (Q14680 whole entry): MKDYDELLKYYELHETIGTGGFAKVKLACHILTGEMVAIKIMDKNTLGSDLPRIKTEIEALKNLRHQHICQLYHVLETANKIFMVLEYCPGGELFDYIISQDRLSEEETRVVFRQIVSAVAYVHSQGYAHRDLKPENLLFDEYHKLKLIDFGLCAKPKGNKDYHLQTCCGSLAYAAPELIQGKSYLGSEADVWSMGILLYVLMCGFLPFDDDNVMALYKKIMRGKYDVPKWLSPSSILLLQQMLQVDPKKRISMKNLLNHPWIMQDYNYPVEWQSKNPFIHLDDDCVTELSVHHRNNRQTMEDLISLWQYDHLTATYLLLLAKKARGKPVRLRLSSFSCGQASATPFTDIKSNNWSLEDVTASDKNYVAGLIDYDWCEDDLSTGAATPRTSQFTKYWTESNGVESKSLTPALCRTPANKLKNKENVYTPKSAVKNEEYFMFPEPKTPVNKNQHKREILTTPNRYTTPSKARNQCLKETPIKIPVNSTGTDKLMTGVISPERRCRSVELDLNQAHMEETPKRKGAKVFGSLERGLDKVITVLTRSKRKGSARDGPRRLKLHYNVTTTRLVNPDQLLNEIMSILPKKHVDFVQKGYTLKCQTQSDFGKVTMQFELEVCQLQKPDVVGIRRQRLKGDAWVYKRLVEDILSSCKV

`CC(C)CC(=O)NC(c1cccs1)c1ccc2cccnc2c1O` (stereo not drawn): the IC50 on Exodeoxyribonuclease V was > 119 µM (inactive). As to `NC1CCC(Nc2nc(Cl)cc(-c3c[nH]c4ncccc34)n2)CC1` (stereo not drawn), in assay [1], the inhibition constant (Ki) was 0.00316 µM (active) and the negative-log Ki (pKi) amounted to 8.5.
